Results as given in ChEMBL document CHEMBL1131045, “Indole-2-carboxamide inhibitors of human liver glycogen phosphorylase” (J Med Chem, 1998).
Values joined by “and” are separate entries in the source; they are usually repeats but may differ in a detail not shown here. Equal values may be shown once.

What was measured:
[1] = target: T1, Glycogen phosphorylase, liver form (Homo sapiens, UniProt P06737); test: In vitro inhibitory activity against recombinant human liver glycogen phosphorylase a (rHLGPa) catalyzed release of phosphate from glucose-1-phosphate.
T1 sequence (P06737 whole entry): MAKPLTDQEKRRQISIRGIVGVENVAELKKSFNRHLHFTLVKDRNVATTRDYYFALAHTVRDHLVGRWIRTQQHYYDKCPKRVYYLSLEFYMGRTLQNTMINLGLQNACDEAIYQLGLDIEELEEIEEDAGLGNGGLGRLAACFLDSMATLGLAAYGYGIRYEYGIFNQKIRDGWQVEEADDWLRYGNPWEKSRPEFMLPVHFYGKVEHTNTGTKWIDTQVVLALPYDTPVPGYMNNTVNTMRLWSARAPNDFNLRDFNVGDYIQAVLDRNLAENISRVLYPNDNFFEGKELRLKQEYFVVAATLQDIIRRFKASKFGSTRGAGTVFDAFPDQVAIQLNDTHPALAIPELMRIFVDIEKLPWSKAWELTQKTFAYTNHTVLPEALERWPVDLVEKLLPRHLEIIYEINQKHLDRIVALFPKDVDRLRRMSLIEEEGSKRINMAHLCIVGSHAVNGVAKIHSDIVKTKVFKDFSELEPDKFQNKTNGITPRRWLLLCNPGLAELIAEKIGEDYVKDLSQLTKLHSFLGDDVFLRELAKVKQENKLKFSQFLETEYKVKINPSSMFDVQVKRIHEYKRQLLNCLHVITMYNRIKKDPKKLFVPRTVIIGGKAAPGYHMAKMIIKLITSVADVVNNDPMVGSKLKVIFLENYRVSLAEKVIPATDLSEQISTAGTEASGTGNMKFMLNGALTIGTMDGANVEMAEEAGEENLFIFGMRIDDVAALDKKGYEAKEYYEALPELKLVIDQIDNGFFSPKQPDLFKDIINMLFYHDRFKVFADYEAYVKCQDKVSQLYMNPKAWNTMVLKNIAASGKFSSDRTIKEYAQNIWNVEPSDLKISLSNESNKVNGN

[2] = Inhibition of forskolin-stimulated glycogenolysis in SK-HEP-1 cells; assay type: functional, cell-based; details: Homo sapiens, SK-HEP1
Mus musculus [3] = test: Hypoglycemic responses resulting from oral dosing in diabetic ob/ob mice(inactive dose), po; assay type: functional
Mus musculus [4] = test: Hypoglycemic responses resulting from oral dosing in diabetic ob/ob mice(active dose), po; assay type: functional
Mus musculus [5] = species: Mus musculus; test: Percent decrease in drug -treated plasma glucose concentration, relative to vehicle treated control diabetic ob/ob mice; assay type: functional

| SMILES | IC50 [1] [nM] | IC50 [2] [nM] | Dose (Mus musculus [3]) [mg/kg] | Dose (Mus musculus [4]) | Glucose (Mus musculus [5]) |
| --- | --- | --- | --- | --- | --- |
| COc1ccc2[nH]c(C(=O)N[C@@H](Cc3ccccc3)C(=O)N(C)C)cc2c1 | 4700 | – | – | – | – |
| CN(C)C(=O)[C@@H](Cc1ccccc1)NC(=O)c1cc2cc(Cl)ccc2[nH]1 | 260 | 12000 | – | – | – |
| CN(C)C(=O)[C@H](O)[C@H](Cc1ccccc1)NC(=O)c1cc2cc(Cl)ccc2[nH]1 | 110 | 1500 | 15 | 50 mg/kg and 25 mg/kg | 40% and 32% |
| CNC(=O)[C@H](O)[C@H](Cc1ccccc1)NC(=O)c1cc2cc(Cl)ccc2[nH]1 | 680 | > 30000 | – | – | – |
| CN(C)C(=O)[C@H](Cc1ccccc1)NC(=O)c1cc2ccccc2[nH]1 | 400 | 7800 | 25 | 50 mg/kg | 40% |
| O=C(N[C@@H](Cc1ccccc1)[C@@H](O)CO)c1cc2cc(Cl)ccc2[nH]1 | 6800 | – | – | – | – |
| COC(=O)[C@H](O)[C@H](Cc1ccccc1)NC(=O)c1cc2cc(Cl)ccc2[nH]1 | 210 | 13000 | 50 | – | – |
| CN(C)C(=O)[C@H](Cc1ccccc1)NC(=O)c1cc2cc(F)ccc2[nH]1 | 430 | 2300 | 50 | – | – |
| CN(C)C(=O)[C@H](O)[C@H](Cc1ccccc1)NC(=O)c1cc2cc(Br)ccc2[nH]1 | 97 | 3300 | 50 | – | – |
| CN(C)C(=O)[C@H](Cc1ccccc1)NC(=O)c1cc2cc(Cl)ccc2[nH]1 | 82 | 1900 | – | – | – |
| CNC(=O)[C@@H](Cc1ccccc1)NC(=O)c1cc2cc(Cl)ccc2[nH]1 | 220 | 12000 | 25 | 50 mg/kg | 39% |
| CNC(=O)[C@H](Cc1ccccc1)NC(=O)c1cc2cc(Cl)ccc2[nH]1 | 110 | 5200 | 25 | 50 mg/kg | 49% |
| O=C(N[C@@H](Cc1ccc(F)cc1)C(=O)N1CCC(O)CC1)c1cc2cc(Cl)ccc2[nH]1 | – | 1900 | 5 | – | 44% and 45% and 26% and 24% |

The next lines start with results.

| IC50 [1] [nM] | IC50 [2] [nM] | SMILES | Dose (Mus musculus [3]) [mg/kg] | Dose (Mus musculus [4]) | Glucose (Mus musculus [5]) |
| --- | --- | --- | --- | --- | --- |
| 140 | > 30000 | COC(=O)[C@H](Cc1ccccc1)NC(=O)c1cc2cc(Cl)ccc2[nH]1 | 50 | – | – |
| 6500 | – | CN(C)C(=O)[C@H](O)[C@H](CC1CCCCC1)NC(=O)c1cc2cc(Cl)ccc2[nH]1 | – | – | – |
| 1800 | – | CN(C)C(=O)[C@@H](O)[C@@H](Cc1ccccc1)NC(=O)c1cc2cc(Cl)ccc2[nH]1 | – | – | – |
| 260 | 5100 | O=C(N[C@@H](Cc1ccccc1)C(=O)N1CCC(O)CC1)c1cc2cc(Cl)ccc2[nH]1 | 10 | 25 mg/kg | 36% |
| 330 | > 30000 | O=C(N[C@@H](Cc1ccccc1)[C@@H](O)C(=O)O)c1cc2cc(Cl)ccc2[nH]1 | – | – | – |
| 110 | 1400 | CN(C)C(=O)[C@H](Cc1ccccc1)NC(=O)c1cc2cc(Br)ccc2[nH]1 | 50 | – | – |
| 1700 | – | NC(=O)[C@H](O)[C@H](Cc1ccccc1)NC(=O)c1cc2cc(Cl)ccc2[nH]1 | – | – | – |
| 1700 | > 30000 | O=C(N[C@@H](Cc1ccccc1)C(=O)O)c1cc2cc(Cl)ccc2[nH]1 | – | – | – |
| 8700 | – | CN(C)C(=O)[C@@H](O)[C@H](Cc1ccccc1)NC(=O)c1cc2cc(Cl)ccc2[nH]1 | 50 | – | – |
| > 10000 | – | O=C(N[C@H](CO)Cc1ccccc1)c1cc2cc(Cl)ccc2[nH]1 | – | – | – |
| 1700 | – | CN(C)C(=O)[C@H](O)[C@@H](Cc1ccccc1)NC(=O)c1cc2cc(Cl)ccc2[nH]1 | – | – | – |
| 440 | > 30000 | CN(C)C(=O)[C@H](O)[C@H](Cc1ccccc1)NC(=O)c1cc2ccccc2[nH]1 | – | – | – |
| 170 | 6200 | CN(C)C(=O)[C@H](O)[C@H](Cc1ccccc1)NC(=O)c1cc2cc(F)ccc2[nH]1 | 10 | 25 mg/kg | 33% |
